From patent US20250059187A1, “COVALENTLY BINDING INHIBITORS OF G12S, G12D AND/OR G12E MUTANTS OF K-RAS GTPASE” (The Regents of the University of California, priority 2021, published 2025)

What was measured:
[1] = tested on: Ba/F3:K-Ras(G12S) cells (without IL-3); experiment: Cell viability assay (CellTiter-Glo), Ba/F3:K-Ras(G12S) cells; format: cell-based, murine
Protocol: Cells were seeded into 96-well white flat bottom plates (1,000 cells/well) (Corning) and incubated overnight. […] Cell viability was assessed using a commercial CellTiter-Glo (CTG) luminescence-based assay (Promega). Briefly, the 96-well plates were equilibrated to room temperature before the addition of diluted CTG reagent […] (1:4 CTG reagent:PBS). Plates were placed on an orbital shaker for 30 min before recording luminescence using a Spark 20M (Tecan) plate reader.

[2] = molecular target: K-Ras(G12S) (Homo sapiens, UniProt P01116, G12S); experiment: Covalent modification of recombinant K-Ras(G12S) by whole-protein mass spectrometry; format: binding; design: human K-Ras (G12S, aa 1-169); 6xHis tag + TEV cleavage site (N, cleaved yes); made in house; host or cells: E. coli BL21(DE3); conditions: 23° C.
Summary of the method: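 Recombinant K-Ras diluted to 400 nM or 1 μM in 20 mM HEPES pH 7.5, 150 mM NaCl, 1 mM MgCl2 and incubated with compound added from 100× DMSO stock. Modification extent measured by electrospray whole-protein mass spectrometry; kinetics used 1:1 mixing with 400 nM protein and injection time stamps for elapsed time.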

[3] = molecular target: T1, wild type K-Ras (Homo sapiens, UniProt P01116); experiment: Covalent modification of recombinant wild-type K-Ras by whole-protein mass spectrometry; format: binding; conditions: 24-h incubation, 100 μM compound, 23° C., pH 7.5
T1 construct: human K-Ras (wildtype, aa 1-169); 6xHis tag + TEV cleavage site (N, cleaved yes); made in house; host or cells: E. coli BL21(DE3)

IC50 ([1]; Mus musculus, BaF3, no IL-3, 72 h, read-out: IC50, growth of K-Ras(G12S)-transduced Ba/F3 cells): 2400 nM
covalent reaction with K-Ras(G12S)·GDP ([2]; 10 μM compound): enhanced reaction
time to 100% modification of K-Ras(G12S)·GDP ([2]; 10 μM): < 10 min
% covalent modification of K-Ras G12S ([2]; 24-h incubation, 100 μM compound, pH 7.5): 100%
% covalent modification of wild type K-Ras [3]: 0%
Compound: O=C1O[C@H]2CN(c3nc(OCC45CCCN4CCC5)nc4c(F)c(-c5cccc6cccc(Cl)c56)ncc34)CC[C@@H]12 [5′]
selectivity, Ba/F3:K-Ras(G12S) over parental Ba/F3 cells [1]: five-fold
